Data on two compounds can be found in US20240327768A1, “MICROFLUIDIC DEVICE MIMICKING TUMOR MICROENVIRONMENT” (The Texas A&M University System, priority 2021, published 2024).

Molecules are shown by their SMILES.

For one experiment, the system named is ovarian cancer cell. Particulars: in vitro study; cited from earlier work.
Experiment [1] concerns A2780 epithelial ovarian cancer cells. Nature of the experiment: RNA sequencing and differential gene analysis of chip-derived tumors. As to conditions: RNA-seq of chip-derived tumors. Type of experiment: cell-based, human. The protocol: Validation of cancer cell-platelet-drug crosstalk within OTME-Chip with next generation RNA-sequencing. It was recently shown that a collaboration of organ-chip technology with RNA-seq analysis is a powerful tool to validate preclinical studies and derive unbiased clinical predictions. Therefore, to solidify insights into the platelet-tumor signaling nexus and the therapeutic effect of Revacept, transcriptomic profiling was performed of different chip-derived tumors through RNA sequencing. Through RNA sequencing and differential gene analysis, expression of 12452 genes in the OTME-Chip relative to Control-Chip was detected. Similarly, expression of 5566, 6909 and 3821 genes in the Cx-OTME-Chip, CxRx-OTME-Chip and KO-OTME-Chip respectively relative to Control-Chip was detected. […]
RNA sequencing and analysis. […] Isolated mRNA samples were then analyzed using the NextSeq 500 platform (Illumina) and sample preparation was performed using TruSeqRNA sample preparation with paired-end read length of 2×75 bases (Molecular Genomics Workspace, Texas A&M University, College Station, TX). Then HISAT2 was used to splice align the reads to latest ENSEMBL-release-102 human genome/transcriptome (GRCh38.p13). […] Differentially expressed genes were then evaluated for all groups using DESeq2 package in R®. […]

The test system is the same in experiment [2]. Nature of the experiment: Cancer cell proliferation assay (Ki67) in OTME-Chip. As to conditions: OTME-Chip with extravasated platelets; Revacept 40 μg/mL, cisplatin 6 μg/mL. Type of experiment: cell-based, human. How it is done:
(§1) Drugs. Cisplatin (Fisher Scientific, USA) and Revacept (Advancecor GamBH, Germany) were dissolved in DMSO and PBS/4% Mannitol/1% Sucrose respectively to prepare master stocks (1 mg/mL). These were further diluted in RMPI-1640 media to obtain respective working concentrations of cisplatin (6 μg mL^−1) and Revacept (40 μg mL^−1). They were perfused into the chip tumor chamber individually or in combination in presence or absence of extravasated platelets.
Cancer cell proliferation assay. Isolated cancer cells were immunostained with monoclonal anti-Ki67 antibody-Alexa Fluor488 conjugate (Abcam). The fluorescence intensity was then measured with a plate reader using excitation/emission wavelengths of 488/519 nm. Platelet free cancer cells obtained from other chips during similar time points were kept as control. Proliferation rate was measured as a percentage ratio of fluorescent intensities of experimental and control cells.

In experiment [3] the test system is metastasis and cell proliferation genes. Nature of the experiment: Transcriptional analysis (qRT-PCR) of cancer cells from OTME-Chip. It is filed as cell-based, human. As to conditions: cancer cells obtained from the chips, over time; Revacept 40 μg/mL, cisplatin 6 μg/mL. How it is done:
as §1
Quantitative real-time PCR. Cancer cell total RNA was isolated using the Arcturus PicoPure RNA Isolation Kit specifically (Thermofisher Scientific, CAS-KIT0214) designed to recover high-quality RNA consistently from fewer cells. Cells isolated from the Chip were washed in prescribed in buffer (0.9 mL of 1×PBS/10% BSA; 0.1 mL of 0.5 M EDTA) and total cellular RNA was isolated by using the manufacturer's protocol. […] The cDNA prepared was further used for the subsequent quantitative qRT-PCR reactions using SyBR green master mix (Applied Biosystems™ SYBR™ Green select PCR Master Mix) and gene specific primers. […] Gene expression was analyzed by quantifying the relative fold changes in mRNA levels of individual genes using comparative Cycle Threshold (CT)/ACT method.

Experiment [4] has as its system A2780 epithelial ovarian cancer cells. Nature of the experiment: Cell cycle analysis of cancer cells from OTME-Chip. As to conditions: OTME-Chip with extravasated platelets, compared to untreated controls; Revacept 40 μg/mL, cisplatin 6 μg/mL. It is filed as cell-based, human. The protocol:
as §1
Cell cycle analysis. Cancer cells isolated via Accutase™ treatment from the chip were fixed in 70% ethanol at […] for 6 hr and permeabilized. Cells were then incubated with 100 μg mL^−1 Propidium Iodide (PI) (Sigma-Aldrich), and 50 μg mL^−1 ribonuclease A in the dark for 30 min at 37° C. Flow cytometry was performed on a BD Accuri C6 flow cytometer (BD Biosciences, USA) and cell cycle analysis was done using CellQuest Pro software.

Experiment [5] concerns growth factors (PDGF, VEGF, and TGFβ) and cytokines (IL-8, MMP9, and IL-6). Nature of the experiment: Growth factors and cytokines in OTME-Chip tumor chamber effluents (multiplex). Type of experiment: cell-based, human. As to conditions: Revacept 40 μg/mL, cisplatin 6 μg/mL. How it is done:
as §1
Growth factors and cytokines. Growth factors and cytokines present in OTME-Chip tumor chamber media effluents were measured using multiplex (xMAP) magnetic bead-based technology provided by Millipore. Media effluents collected from tumor chamber during different time points were analyzed for cytokines and growth factors using MILLIPLEX® MAP Human cytokine/chemokine magnetic bead panel kit (Millipore, CAS-HCYTOMAG-60K) by following previously established protocols. Assays were run in a pre-calibrated Luminex MAPGPIX reader. The mean fluorescent intensity (MFI) of the magnetic beads correlating with the concentration (pg/mL) of respective cytokines and growth factors was calculated using xPONENT 4.2 software and data analysis was done with Milliplex Analyst 5.1 software (Millipore). The concentration of cytokines obtained in each sample was normalized with respect to controls and the assays were run in triplicate. […]

The subject of experiment [6] is A2780 epithelial ovarian cancer cells. Nature of the experiment: Cancer cell ECM invasion in OTME-Chip (A2780). Type of experiment: cell-based, human. As to conditions: OTME-Chip with extravasated platelets, analyzed for three days; Revacept 40 μg/mL, cisplatin 6 μg/mL. An excerpt:
OTME-Chip predicts that pharmaceutical inhibition of GPVI arrests metastasis and supports chemotherapy. The potential consequences of pharmaceutical targeting of GPVI on platelets in cancer were then investigated. There are currently no FDA-approved anti-GPVI drugs in the market. However, Revacept is an inhibitor that has been successfully evaluated against collagen-mediated platelet adhesion in phase I clinical trials of atherosclerosis and stroke. Revacept inhibited the platelet GPVI and tumor galectin-3 interaction in a colon carcinoma cell line. This drug is a fusion protein consisting of the Fc part of human IgG, a short hinge region, a specific linker sequence, and the extracellular part of human platelet GPVI with a molecular mass of 150 kDa. […] Thereafter, these chips were analyzed for three days (FIG. 7). […]
Cell invasion. […] Invasion dynamics of live stained cancer cells (green) into the Chip ECM chamber hydrogel was visualized using fluorescence microscopy (Zeiss Axio Observer; LD Plan Neofluar 10×, NA 0.4). […] Images were analyzed and processed using software ZEN 2.3 lite (ZEISS). […] The ECM invasion of cancer cells was calculated as the ratio of area occupied by invaded cancer cells in ECM chamber vs. the total area of ECM chamber.

On to `CC(=O)Oc1ccccc1C(=O)O` [aspirin, acetylsalicylic acid], for which the “platelet-induced ovarian cancer cell invasion” value in the experiment on ovarian cancer cell is “attenuated”.

Turning to `N.N.[Cl][Pt][Cl]` [cisplatin, reference compound], the “expression of genes of signaling pathways (NFκB, TGFβ/Smad, Hippo, MAPK, mTOR, Notch, PI3-Akt, Wnt), volcano plots” value in experiment [1] was “reduced”. Further, the “expression of these pathways, heatmaps of expression profiles” value in experiment [1] (different chip conditions) was “downregulated”. Besides, the “proliferation rate of the cancer cells” value in experiment [2] is recorded as “modest effect”. Besides, in experiment [3], the “platelet-induced upregulation of metastasis and cell proliferation genes” value is listed as “altered overtime modestly”. The “G2/M phase in cancer cells” value in experiment [4] was “modest effect”. The “concentration of growth factors (PDGF, VEGF, TGFβ) and cytokines (IL-8, MMP9, IL-6)” value in experiment [5] is given as “modest effect”. The “ECM invasion of cancer cells / tumor invasiveness” value in experiment [6] is listed as “modest effect”.
